According to paper PMC13286573, “Exploration of precision coregulator TR-FRET identifies diverse signatures for LXR ligands relevant to discovery of nonlipogenic ABCA1 inducers” (eLife, 2026):
“Also recorded” adds a separate entry of the source.

Assays:
[1] = test system: sterol response element (SRE); test: SRE-luc reporter assay in HepG2 cells; format: cell-based, human
How it was run: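 HepG2 cells stably carrying an SRE (LDLR) promoter–NlucP reporter, grown in medium with charcoal-stripped FBS. Treated with compounds for 24 hr at 37 °C, then lysed and nanoluciferase luminescence read.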

ABCA1 = test: ABCA1-luc reporter assay in CCF-STTG1 astrocytoma cells; format: cell-based, human; details: normalized to T0
Text: Astrocytoma CCF-STTG1 cells, stably transfected with an ABCA1-promoter linked to a luciferase response element, provide a model for ABCA1 induction in astrocytes ([Ben Aissa et al., 2021]). […] Apparent inverse agonist activity in cell-based assays can result from ‘true’ inverse agonist recruitment of corepressors or from antagonist activity towards endogenous sterol LXR agonists. Although we use serum-stripped media, antagonism of endogenous LXR agonists cannot be ruled out.
Low passage CCF-STTG1 cells (20,000 cells/well) were seeded in 96-well plates in media containing charcoal-stripped FBS and incubated at 37 °C and 5% CO2 for 24 hr prior to a 24 hr treatment. All compounds were dissolved in DMSO, and final DMSO concentrations never exceeded 1%. After a 24 hr incubation period, add a volume of ONE-GLOEX Reagent that is equal to the volume of culture medium in each well and incubate for 3–5 min on the shaker. The luminescent activity of compounds ([…], 10-fold dilution) was examined using the ONE-GLOEX assay (Promega). […] The assays were performed in duplicates for each concentration, and the EC50 values were determined from non-linear regression analysis of the dose-response curve generated in GraphPad Prism 9.

LXRα [2] = target: T1, LXRα (Homo sapiens, UniProt Q13133); test: NCOR2 corepressor binding to LXRα, CRT; format: biochemical; parameters: The CRT selectivity assay incorporates GST-tagged LXR-LBD; purchased Thermo Fisher Scientific PV4657; details: read-out: NCOR2α, relative % activity at 1 μM
T1 sequence (Q13133 209-447 limits assumed): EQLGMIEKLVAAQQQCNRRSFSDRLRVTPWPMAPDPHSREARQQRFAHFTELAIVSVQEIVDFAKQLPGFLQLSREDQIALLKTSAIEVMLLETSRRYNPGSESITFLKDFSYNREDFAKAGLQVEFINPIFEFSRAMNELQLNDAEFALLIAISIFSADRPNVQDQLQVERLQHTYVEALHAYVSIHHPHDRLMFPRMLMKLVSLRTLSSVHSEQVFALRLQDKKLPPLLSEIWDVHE

LXRα [3] = target: T1, LXRα; test: SMRT2 corepressor binding to LXRα, CRT; format: biochemical; parameters: The CRT selectivity assay incorporates GST-tagged LXR-LBD; purchased Thermo Fisher Scientific PV4657; details: read-out: SMRT2α, relative % activity at 1 μM
obese mice on HFD = test system: obese mice on HFD; parameters: method as in Griffett et al., 2015; details: ref Griffett et al., 2015; cited from earlier work
LXRα [4] = target: T1, LXRα; details: in the absence of agonist
LXRβ = target: T2, LXRβ (Homo sapiens, UniProt P55055); details: in the absence of agonist
T2 sequence (P55055 222-460 limits assumed): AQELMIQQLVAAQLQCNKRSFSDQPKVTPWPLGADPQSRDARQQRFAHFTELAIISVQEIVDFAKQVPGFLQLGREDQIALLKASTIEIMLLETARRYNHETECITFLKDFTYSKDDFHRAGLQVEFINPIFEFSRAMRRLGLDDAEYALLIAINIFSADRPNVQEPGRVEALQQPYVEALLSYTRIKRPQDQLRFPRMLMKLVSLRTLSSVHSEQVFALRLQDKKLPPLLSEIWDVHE

[5] = ligand 1 µM, interpolated from concentration-response, normalized, heat map Figure 9A

Compound	SRE activation response/phenotype in HepG2 [1]	ABCA1 induction response/phenotype in CCF cells (ABCA1)	activity at 1 µM (LXRα [2]; [5])	activity at 1 µM (LXRα [3]; [5])	Plasma TG (obese mice on HFD)	Coactivator recruitment to LXRα (LXRα [4])	Coactivator recruitment to LXRβ (LXRβ)	activity at 1 µM (LXRα [2])	activity at 1 µM (LXRα [3])
Cc1cc(C)c(S(=O)(=O)N(Cc2ccc(-c3cccc(S(C)(=O)=O)c3)cc2)Cc2ccc(C(F)(F)F)o2)c(C)c1 [GSK2033]	neutral or antagonist response	inverse agonist activity in cells	97.7%	92.9%					
CCOC(=O)c1ccc(CN(Cc2ccc(-c3cccc(S(C)(=O)=O)c3)cc2)S(=O)(=O)c2c(C)cc(C)cc2C)o1 [SR9238]	lowered SRE activation below baseline; also recorded: neutral or antagonist response; also recorded: inverse agonist at <3 µM concentration	inverse agonist activity in cells			plasma TG was suppressed	unable to recruit coactivators to LXRα	very weakly supported coactivator recruitment to LXRβ	64.5%	64.5%
